Experimental data published in patent publication US20150080380A1, “Therapeutic Uses” (GLAXOSMITHKLINE INTELLECTUAL PROPERTY DEVELOPMENT LIMITED, priority 2012, published 2015).
Read-outs that look alike come from different tables or passages of the source.

Legend:
[1] = test system: MAG and MBP expression in OPCs; experiment: Western blot of mature oligodendrocyte markers in differentiating OPCs; assay type: cell-based, rat; details: differentiating oligodendrocytes after treatment
Experimental: The antibodies used for immunoblot and immunocytochemistry experiments were rabbit anti-myelin basic protein (MBP, Millipore, Billerica, Mass.), mouse anti-myelin-associated glycoprotein (MAG, abcam, Cambridge, Mass.).
After treatments, OPCs were washed twice with ice-cold PBS and total cell lysates were harvested in RIPA lysis buffer (50 mM Tris-HCl, pH 7.5, 1 mM EDTA, 1 mM EGTA, 1 mM sodium orthovanadate, 50 mM sodium fluoride, 0.1% 2-mercaptoethanol, 1% triton X-100 and proteases inhibitor cocktail). The lysates were briefly sonicated and stored at −80° C. before Western analysis. The BCA Protein Assay Reagent (PIERCE, Thermo) was performed to determine protein concentration. 15 μg of total protein per sample was aliquoted, boiled for 5 min after being mixed with 2×SDS buffer (125 mM Tris-HCl, 4% SDS, 20% glycerol, 100 mM DTT) and separated by SDS-PAGE on Bis-Tris mini-gels (Invitrogen). Separated proteins were then transferred to nitrocellulose membranes and blocked in 5% milk/TBS-0.1% Tween for 1 h at room temperature. Membranes were then incubated in the presence of primary antibodies diluted in 5% milk/TBS-0.1% Tween overnight at 4° C. The following day, membranes were washed 3 times for 5 min with TBS-0.1% Tween and incubated for 1 h at room temperature in 5% milk/TBS-0.1%. […]

OPC differentiation = experiment: Oligodendrocyte precursor cell (OPC) differentiation assay (MBP immunocytochemistry); assay type: cell-based, rat; details: for EC50: Rattus norvegicus, Oligodendrocyte precursor cell
Experimental: The effects of small-molecule inverse agonists and neutral antagonists of histamine receptor 3 (H3R) on OPC differentiation were determined using the following assay.
The enriched OPC were obtained from dissecting 2-d-old rat pups forebrain. The pups were anesthetized and decapitated. Then the skull was cut with microdissecting scissors and the cortex was taken out with Dumont forceps. The meninges were removed with fine tips. After repeated trituration of the cortex through cell strainer, cells were re-suspended with the culture media consisted of DMEM supplemented with 20% Fetal bovine serum (Invitrogen, Carlsbad, Calif.), glutamine (4 mM, (Invitrogen), and plated onto poly-D-lysine (PDL, […] for 1 h, Sigma, St. Louis, Mo.)-coated T75 flasks. The resulting cultures were fed with fresh culture media twice per week and almost all the neurons will die due to the high concentration of serum in one week. Then the mixed glial cells were subjected to a series shake-off procedure to obtain pure OPCs two weeks later. Specifically, the mixed glial cells were shaken initially for 1 hour at 100 rpm to remove microglia and shaken for 20-22 hours at 37° C. at 200 rpm to enrich OPCs. OPCs were collected by centrifugation at 1200 rpm for 5 min, re-suspended in basal chemically defined medium (BDM). BDM consisted of DMEM supplemented with N2 medium (100×, Invitrogen), glutamine (4 mM, Invitrogen), BSA (0.1 mg/ml, Sigma), hydrocortisone (20 nM, Sigma), selenium (30 nM, Sigma) and biotin (10 nM, Sigma). OPCs were plated on poly-ornithine (PO, 50 μg/ml for 1 hr, Sigma)-coated culture dishes and maintained in BDM supplemented with bFGF (10 ng/ml, Invitrogen) and PDGF (10 ng/ml, PeproTech, Rocky Hill, N.J.) before experimental manipulation. OPCs were 95% pure judged by A2B5+ staining.
To initiate OPC differentiation, OPCs were firstly treated with 0.05% Trypsin/EDTA, and seeded into PO-coated 384-mini well plate at a density of 2,000 to 5,000 cells/well. Each test compound was dissolved in DMSO at the concentration of 10 mM for the assay. Compounds at different concentrations (full dose curve, 0.3 nM-10 uM) were added into the OPC culture in duplicates with Echo machine (Thermo, Waltham, Mass.). OPCs were cultured in BDM supplemented with N-acetyl-L-cystenine (30 μM, Sigma) to differentiate into mature oligodendrocytes for 4 days. BDM comprise DMEM (Invitrogen), N2 (100×, Invitrogen), L-Glu (50×, Invitrogen), Sodium Pyruvate (100×, Invitrogen), BSA (0.1%, Sigma), Biotin (10 nM, Sigma), hydrocortisone (10 nM, Sigma). The resulting cultures were fixed with 4% polyformaldehyde (Sigma) and samples were blocked with the blocking buffer (Donkey Serum 3%, Sigma; Triton X-100 0.04%, Sigma). Then fixed cells were incubated in primary antibodies (anti-myelin basic protein, MBP antibody, 600× dilution in blocking buffer) overnight at 4° C., washed thoroughly with PBS and then incubated with Alexa 488-labeled secondary antibody (Molecular Probes, Invitrogen) for 2 h at R.T; then washed thoroughly with PBS and stained with Dapi (1 ug/ml, Sigma),
The full-plate immunocytochemistry staining was read by an automatic image-based analysis system-Cellomics (Thermo) and the raw data for each well was acquired as percentage of MBP+ population as follows: Pictures of eight fields per well were captured and analyzed quantitatively; the well data is the average of 8 fields. The intensity of anti-MBP staining in the cytosol was used as the criteria of positive objects. The threshold of positive objects was set based on the average intensity of the positive control well, for which triiodothyronine (15 nM) was used. Then the data was analyzed and presented as fold change of the number of the vehicle control well. Graphs were generated by softwares: Microsoft Excel and IDBS XL fits. The curve fitting was performed with software XL fits to derive EC50 of the positive compounds.
All data except FIG. 1 are given as mean±standard error of the mean (SEM). […]

Compound: O=C1CCCN1c1ccc(Oc2ccc3c(c2)CCN(C2CCC2)CC3)nc1 [Example compound 1, 1-{6-[(3-cyclobutyl-2,3,4,5-tetrahydro-1H-3-benzazepin-7-yl)oxy]-3-pyridinyl}-2-pyrrolidinone]
- expression levels of MAG and MBP (western blot) [1]: increased expression levels
- EC50 (OPC differentiation; five experiments (n=5), FIG. 3b, read-out: EC50, promotion of OPC differentiation): 159 ± 57 nM
- EC50 (OPC differentiation; two experiments (n=2), FIG. 3a, read-out: EC50, promotion of OPC differentiation): 118 ± 49 nM
- MBP-positive cells (OPC differentiation; at 3 uM, n=5, FIG. 3b): up to 1.8±0.1 folds of control

Compound: c1cc2c(cc1-c1noc(CC3CCN(C4CCC4)CC3)n1)OCO2 [Example compound 2, 3-(benzo[d][1,3]dioxol-5-yl)-5-((1-cyclobutylpiperidin-4-yl)methyl)-1,2,4-oxadiazole]
- expression levels of MAG and MBP (western blot) [1]: significant increase
- EC50 (OPC differentiation; 96 h, 0.3 nM-10 uM, 4 days, FIG. 1, read-out: EC50, promotion of OPC differentiation (MBP+ population)): 25 nM
